From patent US11000033B2, “Ketone or oxime compound, and herbicide” (NISSAN CHEMICAL CORPORATION, priority 2014, dated 2021)

Tests used:
Format in all cases: in vivo
Scirpus juncoides = assay: Test Example 1: herbicidal activity, application before weed generation in submerged conditions (symbol B); settings: application herbicide amount 320 g/ha
How it was run: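 Steps: alluvial soil flooded to 4 cm; weed seeds sown together; rice seedlings (2.5 leaf) transplanted; diluted emulsion applied to water surface the same day as sowing; plants grown at 25–30 °C in greenhouse; herbicidal effect rated on a 0–5 scale at 3 weeks.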

Leptochloa chinensis = assay: Test Example 3: herbicidal effect by foliage application, Wagner pot (symbol D); settings: application herbicide amount 320 g/ha
How it was run: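 Seeds sown in alluvial soil kept under 0.1–0.5 cm water, greenhouse 25–30 °C; 14 d growth. Leaves treated by small sprayer with water-diluted emulsion at a predetermined rate. Effect graded by set scale, 3 weeks.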

[1] = test system: directly sowed rice plant; assay: Test Example 3: effect on crop by foliage application, Wagner pot (symbol b); settings: application herbicide amount 320 g/ha
How it was run: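 Wagner pot (1/10000 are), alluvial soil, submerged 0.1–0.5 cm; sown E. crus-galli var. crus-galli, L. chinensis, C. difformis, rice; greenhouse 25–30 °C.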

Alopecurus myosuroides [2] = assay: Test Example 4: herbicidal effect by soil treatment (symbol J); settings: application herbicide amount 320 g/ha
How it was run: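 Seeds were sown in sterilized diluvial soil, covered with about 1.5 cm of soil, and the soil surface was sprayed with a water-diluted emulsion of the compound at a predetermined rate. Plants grew in a greenhouse at 25° C. to 30° C.; effects were scored visually 3 weeks after application.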

soybean = assay: Test Example 4: effect on crop by soil treatment (symbol d); settings: application herbicide amount 320 g/ha
How it was run: (§1)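 Sterilized diluvial soil, spot sowing, ~1.5 cm soil cover; greenhouse 25–30° C.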

rice = assay: Test Example 4: effect on crop by soil treatment (symbol b); settings: application herbicide amount 320 g/ha
How it was run: as §1

beet = assay: Test Example 4: effect on crop by soil treatment (symbol f); settings: application herbicide amount 320 g/ha
How it was run: as §1

Digitaria ciliaris = assay: Test Example 5: herbicidal effect by foliage application, plastic box (symbol F); settings: 320 g/ha, 3 weeks after application
How it was run: (§2)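 Post-emergence spray; diluvial soil (sterilized), ~1.5 cm seed cover; greenhouse 25–30° C; 14-day-old plants; water-diluted emulsion at predetermined dose; visual score at 3 wk post-treatment.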

[3] = test system: Echinochloa crus-galli var. crus-galli; assay: Test Example 5: herbicidal effect by foliage application, plastic box (symbol H); settings: 320 g/ha, 3 weeks after application
How it was run: as §2

Alopecurus myosuroides [4] = assay: Test Example 5: herbicidal effect by foliage application, plastic box (symbol J); settings: 320 g/ha, 3 weeks after application
How it was run: as §2

Apera spica-venti = assay: Test Example 5: herbicidal effect by foliage application, plastic box (symbol L); settings: 320 g/ha, 3 weeks after application
How it was run: as §2

Chenopodium album = assay: Test Example 5: herbicidal effect by foliage application, plastic box (symbol O); settings: 320 g/ha, 3 weeks after application
How it was run: as §2

Galium spurium = assay: Test Example 5: herbicidal effect by foliage application, plastic box (symbol Q); settings: 320 g/ha, 3 weeks after application
How it was run: as §2

Veronica persica = assay: Test Example 5: herbicidal effect by foliage application, plastic box (symbol R); settings: 320 g/ha, 3 weeks after application
How it was run: as §2

rapeseed = assay: Test Example 5: effect on crop by foliage application, plastic box (symbol g); settings: 320 g/ha, 3 weeks after application
How it was run: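 A greenhouse held between 25° C. and 30° C. was used to grow plants sown spot-wise, beneath ~1.5 cm of soil, in boxes of sterilized diluvial soil.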

| SMILES | Herbicidal effect grade, B: Scirpus juncoides (Scirpus juncoides) | herbicidal effect on D (Leptochloa chinensis), grade 0-5 (Leptochloa chinensis) | effect on crop b (directly sowed rice plant), grade 0-5 [1] | J: Alopecurus myosuroides, herbicidal effect grade (Alopecurus myosuroides [2]) | d: soybean, effect on crop grade (soybean) | b: directly sowed rice plant, effect on crop grade (rice) | f: beet, effect on crop grade (beet) | F: Digitaria ciliaris, herbicidal effect grade (Digitaria ciliaris) | H: Echinochloa crus-galli var. crus-galli, herbicidal effect grade [3] | J: Alopecurus myosuroides, herbicidal effect grade (Alopecurus myosuroides [4]) | L: Apera spica-venti, herbicidal effect grade (Apera spica-venti) | O: Chenopodium album, herbicidal effect grade (Chenopodium album) | Q: Galium spurium, herbicidal effect grade (Galium spurium) | R: Veronica persica, herbicidal effect grade (Veronica persica) | g: rapeseed, effect on crop grade (rapeseed) | J (Alopecurus myosuroides) herbicidal effect grade (Alopecurus myosuroides [2]) | d (soybean) effect on crop grade (soybean) | b (directly sowed rice plant) effect on crop grade (rice) | f (beet) effect on crop grade (beet) |
| --- | --- | --- | --- | --- | --- | --- | --- | --- | --- | --- | --- | --- | --- | --- | --- | --- | --- | --- | --- |
| CCOC(=O)C(C(=O)C(C)C)C1CC(O)=C(c2c(C)cc(C)cc2C)C1=O (stereo not drawn) [2-009] | 0 (Herbicidal ratio of 5% or lower (almost no effect)) | 0 (Herbicidal ratio of 5% or lower (almost no effect)) | 1 (Herbicidal ratio of 5% or higher and lower than 20%) | 0 (Herbicidal ratio of 5% or lower (almost no effect)) | 0 (Herbicidal ratio of 5% or lower (almost no effect)) | 5 (Herbicidal ratio of 90% or more (almost completely withered)) | 0 (Herbicidal ratio of 5% or lower (almost no effect)) | 0 (Herbicidal ratio of 5% or lower (almost no effect)) | 3 (Herbicidal ratio of 40% or higher and lower than 70%) | 1 (Herbicidal ratio of 5% or higher and lower than 20%) | 0 (Herbicidal ratio of 5% or lower (almost no effect)) | 0 (Herbicidal ratio of 5% or lower (almost no effect)) | 0 (Herbicidal ratio of 5% or lower (almost no effect)) | 0 (Herbicidal ratio of 5% or lower (almost no effect)) | 0 (Herbicidal ratio of 5% or lower (almost no effect)) | – | – | – | – |
| CCOC(=O)C(CC)(C(C)=O)C1CC(O)=C(c2c(C)cc(C)cc2C)C1=O (stereo not drawn) [2-012] | 0 (Herbicidal ratio of 5% or lower (almost no effect)) | 0 (Herbicidal ratio of 5% or lower (almost no effect)) | 0 (Herbicidal ratio of 5% or lower (almost no effect)) | 0 (Herbicidal ratio of 5% or lower (almost no effect)) | 0 (Herbicidal ratio of 5% or lower (almost no effect)) | 0 (Herbicidal ratio of 5% or lower (almost no effect)) | 0 (Herbicidal ratio of 5% or lower (almost no effect)) | 0 (Herbicidal ratio of 5% or lower (almost no effect)) | 1 (Herbicidal ratio of 5% or higher and lower than 20%) | 1 (Herbicidal ratio of 5% or higher and lower than 20%) | 0 (Herbicidal ratio of 5% or lower (almost no effect)) | 0 (Herbicidal ratio of 5% or lower (almost no effect)) | 0 (Herbicidal ratio of 5% or lower (almost no effect)) | 0 (Herbicidal ratio of 5% or lower (almost no effect)) | 0 (Herbicidal ratio of 5% or lower (almost no effect)) | – | – | – | – |
| CON=C(C)CC1CC(O)=C(c2c(C)cc(OCC(F)(F)F)cc2C)C1=O (stereo not drawn) [6-049] | 5 (Herbicidal ratio of 90% or more (almost completely withered)) | 5 (Herbicidal ratio of 90% or more (almost completely withered)) | 5 (Herbicidal ratio of 90% or more (almost completely withered)) | 5 (Herbicidal ratio of 90% or more (almost completely withered)) | 0 (Herbicidal ratio of 5% or lower (almost no effect)) | 5 (Herbicidal ratio of 90% or more (almost completely withered)) | 3 (Herbicidal ratio of 40% or higher and lower than 70%) | 5 (Herbicidal ratio of 90% or more (almost completely withered)) | 5 (Herbicidal ratio of 90% or more (almost completely withered)) | 5 (Herbicidal ratio of 90% or more (almost completely withered)) | 5 (Herbicidal ratio of 90% or more (almost completely withered)) | 5 (Herbicidal ratio of 90% or more (almost completely withered)) | 5 (Herbicidal ratio of 90% or more (almost completely withered)) | 5 (Herbicidal ratio of 90% or more (almost completely withered)) | 5 (Herbicidal ratio of 90% or more (almost completely withered)) | – | – | – | – |
| CON=C(C)CC1CC(O)=C(c2c(C)cc(C)cc2Br)C1=O (stereo not drawn) [6-038] | 4 (Herbicidal ratio of 70% or higher and lower than 90%) | 5 (Herbicidal ratio of 90% or more (almost completely withered)) | 5 (Herbicidal ratio of 90% or more (almost completely withered)) | 5 (Herbicidal ratio of 90% or more (almost completely withered)) | 1 (Herbicidal ratio of 5% or higher and lower than 20%) | 5 (Herbicidal ratio of 90% or more (almost completely withered)) | 0 (Herbicidal ratio of 5% or lower (almost no effect)) | 5 (Herbicidal ratio of 90% or more (almost completely withered)) | 5 (Herbicidal ratio of 90% or more (almost completely withered)) | 5 (Herbicidal ratio of 90% or more (almost completely withered)) | 5 (Herbicidal ratio of 90% or more (almost completely withered)) | 3 (Herbicidal ratio of 40% or higher and lower than 70%) | 0 (Herbicidal ratio of 5% or lower (almost no effect)) | 3 (Herbicidal ratio of 40% or higher and lower than 70%) | 5 (Herbicidal ratio of 90% or more (almost completely withered)) | – | – | – | – |
| CON=C(C)CC1CC(OCC(=O)OC)=C(c2c(C)cc(C)cc2C)C1=O (stereo not drawn) [1-012] | 0 (Herbicidal ratio of 5% or lower (almost no effect)) | 0 (Herbicidal ratio of 5% or lower (almost no effect)) | 0 (Herbicidal ratio of 5% or lower (almost no effect)) | – | – | – | – | 0 (Herbicidal ratio of 5% or lower (almost no effect)) | 0 (Herbicidal ratio of 5% or lower (almost no effect)) | 0 (Herbicidal ratio of 5% or lower (almost no effect)) | 0 (Herbicidal ratio of 5% or lower (almost no effect)) | 0 (Herbicidal ratio of 5% or lower (almost no effect)) | 0 (Herbicidal ratio of 5% or lower (almost no effect)) | 0 (Herbicidal ratio of 5% or lower (almost no effect)) | 0 (Herbicidal ratio of 5% or lower (almost no effect)) | 0 (Herbicidal ratio of 5% or lower (almost no effect)) | 0 (Herbicidal ratio of 5% or lower (almost no effect)) | 0 (Herbicidal ratio of 5% or lower (almost no effect)) | 0 (Herbicidal ratio of 5% or lower (almost no effect)) |
